From patent US20120122965A1, “COMPOSITIONS FOR SKIN PROTECTION AND IMPROVEMENT OF SKIN DISEASES CONTAINING THE DIBENZO-P-DIOXINE DERIVATIVES” (priority 2007, published 2012)

Columns and labels:
[1] = tested on: B-16 cells (mouse melanoma, ATCC CRL 6323); test: Inhibition of melanin synthesis; assay type: cell-based; conditions: 50 μg/ml, 3 days, vs solvent control; for inhibition at 50 µg/mL: Mus musculus, B16, 72 h, read-out: Inhibitory effect on melanin synthesis (%)
Procedure: Catechin, rasveratrol, isoflavone, kojic acid, ascorbic acid, and Moriradicis cortex extracts were used as positive controls.
The B-16 cells (mouse melanoma, ATCC CRL 6323) were maintained in the DMEM medium supplemented 4.5 g/E of glucose, 10% serum, and 1% antibiotic at 37° C. for 24 hours. After the cell was incubated with 0.05% trypsin containing 0.02% EDTA, the cell was plated and incubated for 48 hours. The cells were treated with 50 μg/ml of compositions 1 to 18, or positive controls and incubated at 37° C. for 3 days. The cells were then added with 1 me of lysis buffer (phosphate buffer solution, 0.02% EDTA, 0.05% trypsin) and centrifuged for 5 min After the cells were treated with 5% trichloro acetate (TCA), the farmed melanin was separated and dissolved in 1N NaOH. The absorbance was measured at 475 nm using spectrophotometer. Concentration of melanin was determined by the standard curve of synthetic melanin (SIGMA CO. USA). The cell treated with the same amount of solvent was used as a negative control. The inhibitory effects of each composition on melanin synthesis were determined by following Equation.
{1−(M/M0)}×100 [Equation]
M: amount of melanin of test group or positive controls
M0: amount of melanin of negative control

elastase = test: Inhibition of elastase; assay type: biochemical; conditions: 50 μg/ml, 10 nM elastase, 25° C., 10 min
Procedure: Catechin, rasveratrol, isoflavone, lactokine were used for positive controls. […] The cell treated with the same amount of solvent was used as a negative control. The inhibitory effects of each sample on elastase were determined by following Equation. The results are described in Table 3. {1−(E/E0)}×100 [Equation] E: The absorbance of test group or positive control E0: The absorbance of negative control

[2] = tested on: rat basophilic leukemia cell (RBL-2H3); test: Inhibition on histamine release (DNP-BSA stimulated); assay type: cell-based; conditions: 50 μg/ml, RBL-2H3 cells, vs negative control
Procedure: In order to assess the anti-inflammation and anti-allergic activities of the compositions in the present invention, the inhibitory effects of the compositions on histamine synthesis, which closely related with inflammation including allergy, were investigated. The inhibitory effects of the compositions on histamine synthesis were assessed using the rat basophilic leukemia cell (RBL-2H3) according to the Kawasaki's method. After the cell (1×10^5 cells/well) was cultured in RPMI 1640 medium supplemented with 2% FBS (fetal bovine serum) and rat anti-DNP (dinitrophenol) IgE at 37° C. for 120 min, the cell was washed with the HPEPS buffer to remove the residual IgE. The cells was incubated in either absence (negative control) or presence (test group) of the com[…]. for 10 min. The cell was then treated with DNP-BSA (Dinitrophenol-conjugated Bovine serum albumin), as a histamine release antigen, for 1 hour at 37° C. After the reaction was stopped by adding the HEPES buffer solution, the supernatant was collected and treated with 20 μl of the perchloric acid and centrifuged. The histamine release in the supernatant was measured using the HPLC. The % inhibitions on histamine release of test group were calculated by following Equation compared with negative control. […] H: histamine release of test group H0: histamine release of negative control

[3] = tested on: NHEK (F) cells (normal human epidermal keratinocytes of neonatal foreskin cell); conditions: concentration that reaches 50% of apoptosis, 1 hour incubation
Procedure: (§1) The cytotoxicity of the compositions to the normal skin cell was assessed using the NHEK (F) cells (normal human epidermal keratinocytes of neonatal foreskin cell) and the NB1RGB cells (normal human fibroblast cell line from skin). NHEK (F) and NB1RGB cells, which are main components of the epidermis and Bemis in normal human skin, produce collagen and elastin and provide skin elasticity.
(§2) The mixture of PMS/WST-1 (1-methoxy-5-methylphenazinium methyl sulfate/2-(4-indophenyl)-3-(4-nitrophenyl)-5-(2,4-disulfo phenyl)-2H-tetrazolium monosodium salt) was added to the medium and incubated for 1 hour to generate soluble formosan, and then the absorbance was measured at 415 nm using spectrophotometer. The cells treated with solvent without the compositions were used as a negative control, whereas the cells treated with 1% (w/v) SDS solution were used as a positive control (100% cell apoptosis).
(§3) apoptosis(%)=(A0−A/A0−As)×100 [Equation]
(§4) A0=absorbance of the cell that was not treated with the composition
(§5) A=absorbance of the cell that was treated with the composition […]
(§6) As=absorbance of the cell that was treated with 1% (w/v) SDS (positive control group)

[4] = tested on: NB1RGB cells (normal human fibroblast cell line from skin); conditions: concentration that reaches 50% of apoptosis, 1 hour incubation
Procedure: as §1, §2, §3, §4, §5, §6

[5] = tested on: TG (triacyl glycerol) synthesis; test: Inhibition of TG synthesis in hamster auricles; assay type: in vivo; conditions: for Relative TG concentration in the skin cell (%) / Relative TG concentration in the skin surface (%): hamster auricles, 200 μl of 10% solution topically once a day for 14 days, control group = 100
Procedure: The prevention and treatment effects of the compositions on the acne were assessed through the inhibition of TG (triacyl glycerol) synthesis and sebocyte proliferation in hamster model.
The inhibitory effects of the composition 6 and 14 on TG synthesis were assessed as compared with catechin (positive control group). 5 week-old male hamster was divided into three groups (negative control group, test group, positive control group) and housed 10 animals to a cage after the acclimatization for 2 weeks. Animal rooms were maintained at 25±1° C. and 55% of humidity with a 12-hr light/dark cycle. The animals were freely accessed to diet and water throughout the study. The auricles of hamster were topically treated once a day for 14 days with 200 μl of 10% of the composition 6, 14 or catechin. The solvent for topical application was composed of a mixture of ethanol and glycerol (95:5, v/v). The animals in negative control group were treated with the same volume of vehicle. The auricles were separated from the body and the sebum generated on the skin surface was extracted with acetone. The amount of TG in skin surface was calculated from the sebum extracts. Sebocyte were suspended into solution from the auricle tissues using sonicator, and then amount of intercellar TG was determined by automatic thin-layer chromatography using triolate as a standard. The relative TG concentrations of each sample were calculated from comparison with negative control.

Hamster sebocyte = test: Suppression of sebocyte proliferation ([3H] thymidine); assay type: cell-based; conditions: for % of untreated cell / cell number (×10^3 d.p.m/well): 12 days; for cell number (×10^3 d.p.m/well): control 2.90 ± 0.20
Procedure: Hamster sebocyte were established from sebaceous glands of auricles of the 5 week-old hamsters according to Sato's method. Sebocytes (2.35×10^4 cells/plate) were cultured in DMEM/F12 medium supplemented with 2% FBS and 2% human serum for 24 hours. The cells were treated with the composition 6 and 14 in different concentrations one time per 3 days for 12 days. The [^3H] thymidine (1 kBq/well) (Amersham Bioscience) was added 3 hours before the final treatment. The amount of [^3H] thymidine combined with DNA was measured by using liquid scintillation counter. The cell proliferation activity was determined as compared with negative control.

[6] = tested on: pro-inflammatory cytokines (IL-1α, IL-1β, IL-6, IL-8, and TNF-α); test: Suppression of inflammatory gene expression induced by UV exposure in NHEK cells; assay type: cell-based, human; conditions: 50 μg/ml, UVB 40 mJ, compared with positive control (UVB only), FIG. 3
Procedure: The anti-inflammation effects of the compositions were investigated by measuring the UVB-induced generation of pro-inflammatory cytokines (IL-1α, IL-1β, IL-6, IL-8, and TNF-α) in the epidermis.
The normal human epidermal keratinocytes (NHEK cell line) were incubated in the keratinocyte-SFM medium (serum-free medium) at 95% humidity in 5% carbon dioxide at 37° C. The cells were placed (3×10^4 cells/wall) into the 96-well plate and allowed to adhere 24 hours. The cells were treated with the composition 6, 16 or green tea extract in the concentration of 50 μg/ml. DMSO (dimethyl sulfoxide) was used as a solvent and the final concentration of DMSO was 0.1% (v/v). After incubation for 24 hours, the cells were was irradiated with UVB (40 mJ/cd). The cultured supernatants were collected 24 hour after UVB irradiation. The concentrations of pro-inflammatory cytokines (IL-1β, IL-6, IL-8, and TNF-α) were deteHnined from Human Inflammation Cytometric Bead Assay kit (Becton Deckinson, San Diego, USA). The concentration of IL-1α was measured using the enzyme immunoassay. The results are described in FIG. 2. The negative control indicates the cells which were neither irradiated nor treated with the compositions, and the positive control means the cells which were only irradiated with UVB without treatment of the compositions.

[7] = sample concentration 10 (unit not given)
[8] = sample concentration 20 (unit not given)
[9] = sample concentration 40 (unit not given)

Row | Compound | Inhibitory effect on melanin synthesis (%) [1] [%] | Inhibition of Elastase (%) (elastase) | % Inhibition on histamine release [2] [%] | LD50 (μM) NHEK (F) cell [3] [µM] | LD50 (μM) NB1RGB cell [4] [µM] | other results
1 | Oc1cc(O)cc(Oc2c(O)cc(O)c3c2Oc2c(O)cc(O)c(-c4c(O)cc(O)c5c4Oc4c(O)cc(O)c(Oc6cc(O)cc(O)c6)c4O5)c2O3)c1 [composition 5] | 83.5 | 90.4 | 77.4 | 100.4 |  | 
2 | Oc1ccc(/C=C/c2cc(O)cc(O)c2)cc1 [rasveratrole, reference compound] | 40.9 | 48.3 |  |  |  | 
3 | O=c1c(-c2ccccc2)coc2ccccc12 [isoflavone, reference compound] |  | 38.3 |  |  |  | inhibition at 50 µg/mL [1]: 64.3%
4 | Oc1cc(O)cc(Oc2c(O)cc(O)c3c2Oc2c(O)cc(O)cc2O3)c1 [composition 1] | 84.3 | 87.4 | 60.4 | 56.4 | 110.4 | 
5 | Oc1cc(O)cc(Oc2c(O)cc(O)c3c2Oc2c(O)cc4oc5cc(O)cc(O)c5c4c2O3)c1 [composition 7] | 80.5 | 88.7 | 70.8 | 78.9 | 100.4 | 
6 | O=C1O[C@H]([C@@H](O)CO)C(O)=C1O [ascorbic acid, reference compound] |  |  |  |  |  | inhibition at 50 µg/mL [1]: 65.3%
7 | Oc1cc(O)cc(Oc2c(O)cc(O)c3c2Oc2c(O)cc(O)c(-c4c(O)cc(O)c5c4Oc4c(O)cc(Oc6c(O)cc(O)cc6O)c(Oc6cc(O)cc(O)c6)c4O5)c2O3)c1 [composition 10] | 92.1 | 88.1 | 83.2 | 48.2 |  | 
8 | Oc1cc(O)cc(Oc2c(O)cc(O)c3c2Oc2c(O)cc(Oc4c(O)cc(Oc5c(O)cc(O)c6c5Oc5c(O)cc(O)cc5O6)cc4O)cc2O3)c1 [composition 2] | 82.0 | 86.4 | 70.3 | 48.9 | 150.3 | 
9 | Oc1cc(O)cc(Oc2c(Oc3c(O)cc(O)cc3O)cc(O)c3c2Oc2c(O)cc(O)cc2O3)c1 [composition 9] | 84.3 | 82.7 | 72.1 | 57.2 | 114.3 | 
10 | Oc1cc(O)cc(Oc2cc(O)c3c(c2)Oc2c(O)cc(O)c(Oc4cc(O)cc(O)c4)c2O3)c1 [composition 8] | 87.6 | 87.7 | 62.9 | 93.2 | 104.8 | 
11 | catechin [reference compound] | 50.4 | 50.4 |  |  |  | Relative TG concentration in the skin cell (%) [5]: 110.4%; Relative TG concentration in the skin surface (%) [5]: 108.2%
12 | Oc1cc(O)cc(Oc2c(O)cc(O)c3c2Oc2c(cc(O)c(-c4c(O)cc5c(c4O)Oc4c(Oc6cc(O)cc(O)c6)c(O)cc(O)c4O5)c2O)O3)c1 [composition 6] | 89.8 | 89.9 | 75.9 | 105.4 | 97.3 | sebum production on skin surface and in the skin cell ([5]; compared with negative control): significantly decrease sebum production; Relative TG concentration in the skin cell (%) [5]: 54.9%; Relative TG concentration in the skin surface (%) [5]: 66.2%; sebocyte proliferation (Hamster sebocyte; Table 9, in words): significantly suppressed sebocyte proliferation; % of untreated cell (Hamster sebocyte; [7]): 78.4%; cell number (×10^3 d.p.m/well) (Hamster sebocyte; [7]): 2.26 ± 0.67 ×10^3 d.p.m/well; % of untreated cell (Hamster sebocyte; [8]): 30.2%; cell number (×10^3 d.p.m/well) (Hamster sebocyte; [8]): 0.87 ± 0.07 ×10^3 d.p.m/well; % of untreated cell (Hamster sebocyte; [9]): 10.4%; cell number (×10^3 d.p.m/well) (Hamster sebocyte; [9]): 0.30 ± 0.05 ×10^3 d.p.m/well; levels of pro-inflammatory cytokines [6]: significantly decrease levels of pro-inflammatory cytokines
13 | Oc1cc(O)cc(Oc2c(O)cc(O)c3c2Oc2c(O)cc4oc5c(Oc6cc(O)cc(O)c6)c(O)cc(O)c5c4c2O3)c1 [composition 4] | 82.3 | 85.4 | 80.3 |  |  | 
14 | O=c1cc(CO)occ1O [kojic acid, reference compound] |  |  |  |  |  | inhibition at 50 µg/mL [1]: 60.3%
